Source: US8143250B2, “6-7,dialkoxy quinazoline derivatives useful for treatment of cancer related disorders” (priority 2008, dated 2012)
Entries after “also recorded” stand apart in the source; their conditions may differ. Structures can show the parent of a compound that is named as a salt. Where two headings read alike, the source gives them in different places.

Key:
male and female mice = assay: Acute toxicity (LD0, LD50) in mice; assay type: in vivo; conditions: single oral dose; for LD50: Litchfield and Wilcoxon; for LD0: no mortality at end of 7 days
Method: The doses 500, 750, 1000 and 2000 mg/Kg were administered orally. Each group consists of 5 mice. […] The survived animals were autopsied for asserting the absorption of compound through g.i.t.
The LD50 was determined using Litchfield and Wilcoxon (J. Pharmacol. Exp. Ther. 1949, 96: 99-113).

A549 cells [1] = assay: In vivo evaluation on subcutaneous lung tumours in nude mice; conditions: for tumour regression: subcutaneous A549 tumours
Excerpt: Nude mice were implanted with 2×10^6 A549 cells in the right hind limb flank.

[2] = tested on: A549 luciferase expressing cells; assay: Evaluation of lung tissue harvested from nude mice after treatment; assay type: in vivo; conditions: various concentrations, oral/ip routes
[3] = tested on: A549 luciferase expressing cells; assay: Nude mice implanted with A549 luciferase expressing cells, tumor observation; assay type: in vivo; conditions: 42 days treatment, oral and ip routes
A549 cells [4] = assay: Evaluation of ED50 from lung section and tumor regression studies; assay type: in vivo, nude mice; conditions: oral route, based on lung section and tumor regression studies
Method: The ED50 values were evaluated based on the lung section and tumor regression studies. […].

Erb B2 = assay: Western blot of receptor levels in A549 cells: Erb B2; assay type: cell-based, human
Method: (§1) Levels of Erb-1, Erb-2, Erb-3, Erb-4 and VEGFR were determined by western blot analysis.

Erb B3 = assay: Western blot of receptor levels in A549 cells: Erb B3; assay type: cell-based, human
Method: as §1

Erb B4 = assay: Western blot of receptor levels in A549 cells: Erb B4; assay type: cell-based, human
Method: as §1

VEGFR = assay: Western blot of receptor levels in A549 cells: VEGFR; assay type: cell-based, human
Method: as §1

A549 and H1299 cells = assay: cells; conditions: Homo sapiens, read-out: inhibiting concentration (IC50)
Method: Solubilization of the cells by the addition of a detergent results in the liberation of the crystals, which are solubilized. The number of surviving cells is directly proportional to the level of the formazan product created. The color can then be quantified using a simple colorimetric assay. This assay was done using 0-1000 ng/ml concentrations of Erlotinib and the test compounds in A549 and H1299 cells.

EGFR = target: T1, EGFR (Homo sapiens, UniProt P00533); assay: Western blot analysis of EGFR expression; assay type: cell-based; conditions: for concentration causing comparable inhibition of EGFR expression: H1299 or A549 cells, 72 hr
T1 construct: endogenous in cells; host or cells: H1299 or A549 cells
Excerpt: The gels were blotted onto treated nylon membranes (Biorad) and immunoprobed for EGFR, P13K and AKT.

H1299 and A549 cells = assay: Matrigel invasion assay (modified Boyden chamber); assay type: cell-based, human; conditions: cells treated 48 hr, migration 24 h
Method: The in vitro invasiveness of H1299 and A549 cells in the presence of various concentrations of NRC compounds (as determined by MTT assay) was assessed using a modified Boyden chamber assay. Cells were treated with these compounds for 48 hr. 1×10^6 cells were suspended in 600 μl of serum-free medium supplemented with 0.2% BSA and placed in the upper compartment of the transwell chambers (Corning Costar Fisher Scientific cat #07-200-158, Pittsburgh Pa.) coated with matrigel (0.7 mg/ml). The lower compartment of the chamber was filled with 200 μl of serum medium and the cells were allowed to migrate for 24 h. after incubation, the cells were fixed and stained with Hema-3 and quantified as previously described (Mohanam et al. 1993). The migrated cells were quantified as percent invasion.

A549 cells [5] = assay: Visualization of tumors in lung tissue (H&E sections); assay type: in vivo, nude mice; conditions: intrapulmonary A549, 2.5 and 20 mg/Kg, oral/ip, thirty days daily treatment
Excerpt: Nude mice were implanted by intrapulmonary injections of A549 cells. […] Thirty days after daily drug treatments, mice were sacrificed and lungs harvested. The lung tissues were fixed in 10% buffered formaldehyde, paraffin embedded and sectioned. The sections were H&E stained as per statutory protocols to visualize solid or diffuse tumors.

C#Cc1cccc(Nc2ncnc3cc(OCCOC)c(OCCOC)cc23)c1 [Erlotinib HCl, N-(3-Ethylnylphenyl)-6,7-bis(2-methoxyethoxy)-4-quinazolinamine, reference compound]
LD50 (male and female mice): 805 mg/kg (po)
LD0 (male and female mice): 500 mg/kg (po)
tumour regression (A549 cells [1]; 100 mg/Kg dose): could not induce complete tumor regression; also recorded: tumours were still present
residual tumours in harvested lungs [2]: tumours were still present
tumors at end of treatment [3]: residual tumors were still present
ED50 (A549 cells [4]; Mus musculus, A549, read-out: ED50): 22 mg/kg
Erb B2 level (Erb B2): not seen at all; also recorded: no such indication was seen
Erb B3 level (Erb B3): not seen at all; also recorded: no such indication was seen
Erb B4 level (Erb B4): not seen at all; also recorded: no such indication was seen
VEGFR level (VEGFR): not seen at all; also recorded: no such indication was seen
IC50 (A549 and H1299 cells): 0.836 µg/mL

C#Cc1cccc(Nc2ncnc3cc(OC)c(OCCCN4CCOCC4)cc23)c1 [NRC-2694, N-(3-ethylnylphenyl)-7-methoxy-6-[3-(4-morpholinyl)propoxy]-4-quinazolinamine]
LD50 (male and female mice): could not be pinpointed
LD0 (male and female mice): 2000 mg/kg (po)
level of efficacy versus erlotinib HCl (EGFR expression) (EGFR; 80 ng versus 800 ng): ten fold
concentration causing comparable inhibition of EGFR expression (EGFR): 80 ng
concentration causing comparable inhibition of EGFR expression (EGFR; value in parentheses): 190 nm
invasion (H1299 and A549 cells): significant decrease in invasion in a dose dependent manner
tumour regression (A549 cells [1]; 10 mg/Kg dose): complete regression of tumours
superiority in efficacy versus erlotinib HCl (A549 cells [1]; 10 mg/Kg versus 100 mg/Kg): ten fold
residual tumours in harvested lungs [2]: Complete regression of tumours
tumors in lung tissue sections, comparison with erlotinib HCl (A549 cells [5]): fared much better
tumors at end of treatment [3]: No tumors were observed
ED50 (A549 cells [4]): 6.3 mg/kg
Erb B2 level (Erb B2): down regulating
Erb B2 level (Erb B2; listed as NRC 2694): down regulated
Erb B3 level (Erb B3): down regulating
Erb B3 level (Erb B3; listed as NRC 2694): down regulated
Erb B4 level (Erb B4): down regulating
Erb B4 level (Erb B4; listed as NRC 2694): down regulated
VEGFR level (VEGFR): down regulating
VEGFR level (VEGFR; listed as NRC 2694): down regulated
